PubChem BioAssay (NCI)
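Five compound concentrations were applied to cells in 96-well plates for 48 hours; endpoints were derived by simple linear interpolation of the resulting dose-response curve. GI50 marks 50% less growth. TGI marks complete inhibition of growth.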

Tests used:
Test in all cases: growth of human tumour cells (NCI), 48 h
COLO 205 colon = test system: COLO 205 colon
DMS 114 small cell lung = test system: DMS 114 small cell lung
DMS 273 small cell lung = test system: DMS 273 small cell lung
HL-60(TB) leukemia = test system: HL-60(TB) leukemia
HOP-18 NSCLC = test system: HOP-18 NSCLC
KM20L2 colon = test system: KM20L2 colon
M19-MEL melanoma = test system: M19-MEL melanoma
RPMI-8226 leukemia = test system: RPMI-8226 leukemia
SNB-75 CNS = test system: SNB-75 CNS
SNB-78 CNS = test system: SNB-78 CNS
UO-31 renal = test system: UO-31 renal
DU-145 prostate = test system: DU-145 prostate
SR leukemia = test system: SR leukemia

| SMILES | TGI (COLO 205 colon) [µM] | TGI (DMS 114 small cell lung) [µM] | TGI (DMS 273 small cell lung) [µM] | TGI (HL-60(TB) leukemia) [µM] | TGI (HOP-18 NSCLC) [µM] | TGI (KM20L2 colon) [µM] | TGI (M19-MEL melanoma) [µM] | TGI (RPMI-8226 leukemia) [µM] | TGI (SNB-75 CNS) [µM] | TGI (SNB-78 CNS) [µM] | TGI (UO-31 renal) [µM] | TGI (DU-145 prostate) [µM] | TGI (SR leukemia) [µM] | GI50 (COLO 205 colon) [µM] | GI50 (DU-145 prostate) [µM] | GI50 (HL-60(TB) leukemia) [µM] | GI50 (RPMI-8226 leukemia) [µM] | GI50 (SNB-75 CNS) [µM] | GI50 (SR leukemia) [µM] | GI50 (UO-31 renal) [µM] |
| --- | --- | --- | --- | --- | --- | --- | --- | --- | --- | --- | --- | --- | --- | --- | --- | --- | --- | --- | --- | --- |
| O=NN1C(c2ccccc2)C2CCCC(C2=O)C1c1ccccc1 (stereo not given) | 32 | > 93.8 | 55.2 | 44.7 | > 25.2 | 25.9 | 37.1 | 48.4 | 61 | > 100 | > 76.2 | – | – | – | – | – | – | – | – | – |
| COc1ccc(C(=O)O[C@H]2CC[C@@]3(C)[C@@H]4CC[C@H]5[C@]6(O)C[C@H](O)[C@@]7(O)[C@@H](CN8C[C@@H](C)CC[C@H]8[C@@]7(C)O)[C@]6(O)C[C@@]53OC24O)cc1OC | > 100 | – | – | – | – | – | – | > 100 | > 100 | – | > 100 | > 100 | > 100 | – | – | – | – | – | – | – |
| Cc1cn(C2C=CC(COP(=O)(OCc3ccc([N+](=O)[O-])o3)N(C)CCCCCl)O2)c(=O)[nH]c1=O (stereo not given) | 9.87 | – | – | 32.3 | – | – | – | 14.1 | 10.8 | – | 31.1 | 26.1 | 4.83 | – | – | – | – | – | – | – |
| COc1ccc(NC(=S)NNC(=O)c2nsc3ccccc23)cc1 | > 100 | > 100 | 81.5 | 60.8 | – | > 100 | > 100 | > 100 | 66.8 | > 100 | 69.1 | – | > 100 | – | – | – | – | – | – | – |
| Nc1c(OCC(=O)O)ccc2cc(S(=O)(=O)O)ccc12 | > 100 | – | – | > 100 | – | – | – | > 100 | > 100 | – | > 100 | > 100 | – | – | – | – | – | – | – | – |
| c1cc(-c2ccc(-c3nc4ccc(C5=NCCN5)cc4s3)s2)ccc1C1=NCCN1 | – | – | – | 2.08 | – | – | – | 1.22 | – | – | 2.61 | 0.677 | 1.43 | – | – | – | – | – | – | – |
| O=C1C[C@H](COCc2ccccc2)NC(=O)C[C@H](COCc2ccccc2)NC(=O)C[C@H](COCc2ccccc2)N1 | > 100 | – | – | > 100 | – | – | – | > 100 | 8.27 | – | > 100 | > 100 | > 100 | – | – | – | – | – | – | – |
| CN(C)CCCNc1ccc2nnn3c4ccc(OC(=O)c5ccccc5)cc4c(=O)c1c23 | 28.9 | – | – | – | – | – | – | 25.5 | – | – | 20.8 | 22.9 | 2.61 | – | – | – | – | – | – | – |
| CN(CCO)Cc1ncccc1O | > 100 | – | – | > 100 | – | – | – | > 100 | > 100 | – | > 100 | > 100 | > 100 | – | – | – | – | – | – | – |
| CCCCN(CCCC)CCC(O)c1cc(-c2ccc(C(F)(F)F)cc2)nc(-c2ccc(C(F)(F)F)cc2)c1 (stereo not given) | > 100 | – | – | > 100 | – | – | – | > 100 | > 100 | – | > 100 | > 100 | > 100 | – | – | – | – | – | – | – |
| C[C@]12Cc3cnc(-c4ccccc4)nc3C[C@@H]1CC[C@@H]1[C@@H]2CC[C@@]2(C)[C@H]1CC[C@]2(C)O | 43.2 | – | – | > 100 | – | – | – | 55 | 21.6 | – | 7.06 | 44.1 | 88.5 | – | – | – | – | – | – | – |
| CCOC(=O)Nc1sc2c(c1C#N)CC(C)CC2 (stereo not given) | 18.2 | – | – | 13.1 | – | – | – | 34.8 | 38.2 | – | 46.1 | > 100 | 18.4 | – | – | – | – | – | – | – |
| COc1ccc(C(=O)NC2=C(Cl)C(=O)c3ccccc3C2=O)cc1 | 3.74 | – | – | > 100 | – | – | – | – | 12.8 | – | 8.75 | 15.2 | > 19.6 | – | – | – | – | – | – | – |
| COc1ccc(/C=C2\C[C@H]3[C@@H]4CC=C5C[C@@H](OC(C)=O)CC[C@]5(C)[C@H]4CC[C@]3(C)\C2=N\O)cc1OC | 27.1 | – | – | > 100 | – | – | – | 88.2 | > 100 | – | 91.6 | > 100 | > 100 | – | – | – | – | – | – | – |
| CC(C)=Cc1cc(C)c2c3c(c(O)c(O)c(C)c13)C(C)=CC2=O | 26.6 | – | – | 67 | – | – | – | 15 | – | – | > 100 | 89 | 78.1 | – | – | – | – | – | – | – |
| CC[C@H](C)C1=C(OC(C)=O)[N@+]2([O-])Oc3ccc(-c4c(O)c(O)c(-c5ccc(OC(C)=O)cc5)c(OC(C)=O)c4OC(C)=O)cc3O[C@]2([C@@H](C)CC)C(=O)N1O | > 50 | – | – | > 50 | – | – | – | 25.5 | – | – | > 50 | > 50 | 39.7 | – | – | – | – | – | – | – |

| SMILES | TGI (COLO 205 colon) [µM] | TGI (DMS 114 small cell lung) [µM] | TGI (DMS 273 small cell lung) [µM] | TGI (HL-60(TB) leukemia) [µM] | TGI (HOP-18 NSCLC) [µM] | TGI (KM20L2 colon) [µM] | TGI (M19-MEL melanoma) [µM] | TGI (RPMI-8226 leukemia) [µM] | TGI (SNB-75 CNS) [µM] | TGI (SNB-78 CNS) [µM] | TGI (UO-31 renal) [µM] | TGI (DU-145 prostate) [µM] | TGI (SR leukemia) [µM] | GI50 (COLO 205 colon) [µM] | GI50 (DU-145 prostate) [µM] | GI50 (HL-60(TB) leukemia) [µM] | GI50 (RPMI-8226 leukemia) [µM] | GI50 (SNB-75 CNS) [µM] | GI50 (SR leukemia) [µM] | GI50 (UO-31 renal) [µM] |
| --- | --- | --- | --- | --- | --- | --- | --- | --- | --- | --- | --- | --- | --- | --- | --- | --- | --- | --- | --- | --- |
| CC[C@@]1(OC(=O)CN(C)C)C(=O)OCc2c1cc1n(c2=O)Cc2cc3c(N)cccc3nc2-1 | 6.9 | – | – | 10.7 | – | – | – | 0.541 | 0.283 | – | 0.057 | 0.081 | 0.176 | 0.656 | 0.0115 | 0.0226 | 0.0636 | 0.0428 | < 0.01 | 0.0166 |
| Clc1cc2ccccc2c2ccccc12 | > 100 | – | – | > 100 | – | – | – | > 100 | > 100 | – | > 100 | > 100 | > 100 | – | – | – | – | – | – | – |
| O=C(O)C1OC1C(=O)O (stereo not given) | > 100 | – | – | – | – | – | – | > 100 | > 100 | – | > 100 | > 100 | > 100 | – | – | – | – | – | – | – |
| CN(C)CCNCc1ccc2c(-c3ccccc3)nc3cc(Cl)c(Cl)cc3n12 | 14.1 | – | – | 11.6 | – | – | – | 36.8 | 20.2 | – | 14.7 | 23.3 | – | – | – | – | – | – | – | – |
| CCc1c2cc(OC)c(OC)cc2cc2c3cc(OC)c(OC)cc3cc[n+]12 (tested in a mixture with another compound) | 22.8 | 63.1 | > 100 | > 96.8 | > 100 | > 100 | > 92.7 | > 47.3 | 38.4 | > 100 | > 71.6 | > 54.8 | > 57.9 | – | – | – | – | – | – | – |
| COc1cc2c(cc1OC)C1c3ccccc3CCN1CCC2 (stereo not given) | > 100 | – | – | > 100 | – | – | – | > 100 | > 100 | – | > 100 | > 100 | > 100 | – | – | – | – | – | – | – |
| O=S(=O)(O)c1cc(S(=O)(=O)O)c2cc(N=Nc3c(O)ccc4ccccc34)ccc2c1 | > 100 | – | – | > 100 | – | – | – | > 100 | > 100 | – | > 100 | > 100 | – | – | – | – | – | – | – | – |
| CCOC(=O)c1nc2ccccc2n(CC)c1=O | > 100 | – | – | > 100 | – | – | – | > 100 | – | – | > 100 | > 100 | > 100 | – | – | – | – | – | – | – |
| CO/N=C(/C)c1cccc(Nc2nc3ccc(Cl)cc3c3[nH]c4ccccc4c23)c1 | 19.9 | – | – | 32 | – | – | – | 17 | – | – | 21.7 | 24.9 | 14.6 | – | – | – | – | – | – | – |
| O=C1CNC(=O)/C(=C/c2c[nH]c3ccccc23)N1 | – | – | – | > 100 | – | – | – | > 100 | – | – | > 100 | > 100 | – | – | – | – | – | – | – | – |
| COC(=O)c1c(C)[nH]c2c1C(=O)C(=O)c1nc(C)c(C)nc1-2 | 29.5 | – | – | 29.2 | – | – | – | 47.3 | 7.95 | – | 35.7 | 25.5 | 44.9 | – | – | – | – | – | – | – |
| Clc1ccc(C2CC(c3cccc(Nc4ccncc4)c3)=NN2c2ccc(Cl)cc2)cc1 (stereo not given) | 4.75 | – | – | – | – | – | – | – | 2.56 | – | 2.74 | 3.49 | – | 2.09 | 1.88 | – | – | 1.21 | – | 1.42 |
| Cc1cc(C)c2c(n1)S(=O)(=O)N(CCCN1CCN(c3cccc(Cl)c3)CC1)/C(=C(\O)c1ccccc1)C2=O | 36.9 | – | – | 71 | – | – | – | – | – | – | 74 | > 100 | 68.9 | – | – | – | – | – | – | – |
| O=C(Nn1c(-c2cccs2)nc2ccc(I)cc2c1=O)c1ccccc1 | > 100 | – | – | 99.7 | – | – | – | 58.1 | – | – | 93.3 | 46.7 | 61.4 | – | – | 33.7 | 22.8 | – | – | – |
| OC(c1ccc(Cl)cc1)(c1ccc(Cl)cc1)c1cncnc1 | 35.2 | – | – | – | – | – | – | 85.3 | 52.7 | – | 31.3 | 59.8 | > 100 | – | – | – | – | – | – | – |
